Measured values taken from US8911750B2, “Lung volume reduction therapy using crosslinked biopolymers” (priority 2007, dated 2014).

Tested on: tissue
Test: Local tissue toxicity of glutaraldehyde by concentration
Format: in vivo
Conditions: below this level limited local toxicity

## O=CCCCC=O [glutaraldehyde]
  concentration that produces significant tissue necrosis: ≥ 0.75%
